Measurements as given in US8436043B2 (Takeda Pharmaceutical Company Limited, priority 2008, dated 2013).
pIC50: −log10 of the molar value.

target: T1, human glucagon receptor (Homo sapiens, UniProt P47871); test: Glucagon binding inhibitory activity ([125I]-glucagon binding to glucagon receptor membrane protein); conditions: human glucagon receptor membrane protein, [125I]-glucagon, 90 min room temperature
T1 construct: made in house; host or cells: FreeStyle CHO cells, transient transfection with pMSRαneo/hGCGR; membrane fraction (35,000 rpm pellet)
Experimental: The glucagon binding inhibitory action of the compound of the present invention was evaluated by the following method.
(1) Cloning of Human Glucagon Receptor Gene
Human glucagon receptor gene was cloned by PCR reaction using human pancreas Marathon-ready cDNA (Clontech) as a template and the following primer set.
PCR reaction was performed using Advantage 2 polymerase (Clontech) and according to the attached protocol. The obtained PCR product was electrophoresed on an agarose gel (1%). An about 1.4 kb of DNA fragment containing a glucagon receptor gene was recovered from the gel and digested with restriction enzymes EcoRI and NotI. DNA treated with the restriction enzymes was electrophoresed on an agarose gel (1%). An about 1.4 kb of DNA fragment was recovered and ligated to plasmid pMSRαneo digested with restriction enzymes EcoRI and NotI to construct a human-type glucagon receptor expression plasmid DNA “pMSRαneo/hGCGR”.
(2) Preparation of Glucagon Receptor Membrane Protein
A human-type glucagon receptor was expressed using FreeStyle CHO Expression System (Invitrogen). A transient expression in FreeStyle CHO cell was performed using a human-type glucagon receptor expression plasmid DNA “pMSRαneo/hGCGR” and according to the manual attached to the FreeStyle CHO Expression System. The above-mentioned DNA was transfected and the cultured with shaking for 2 days (37° C., 8% CO2, 125 rpm). 2400 ml of culture medium was centrifuged at 2,000 rpm for 10 min and the cells were collected. The collected cells were washed with PBS, suspended in homogenate buffer [10 mM NaHCO3 (pH 7.4), 1 mM EDTA, Complete EDTA-free (Roche, 1 tablet/50 ml)] and disrupted by polytron cell disrupter (Kinematica AG). Disruption solution was centrifuged at 2,000 rpm for 10 min and the supernatant was collected.
(3) Measurement of Glucagon Binding Inhibitory Activity
The plate was stood for 90 min at room temperature. The reaction solution was transferred from the reaction plate to a 96 well unifilter GF/C plate (Perkin Elmer Inc.) using a cell harvester (Perkin Elmer Inc.) and the membrane fraction was collected on the filter by suction. The filter was presoaked in 2 mg/ml of polyethyleneimine to prevent non-specific adsorption of labeled ligand. The filter was washed 4 times with a reaction buffer and dried for 2 hr at 42° C. To each well was added 25 μl of scintillator (MicroScint0; Perkin Elmer Inc.), and the fluorescence amount was measured using a microplate scintillation counter (TopCount NXT™; Perkin Elmer Inc.).
In addition, the inhibitory rate (%) of the well added with the test compound (10 μM; containing 0.4% DMSO) was calculated, using the reaction rate of the well added only with 0.4% DMSO as 0% inhibitory rate, and the reaction rate of the well added with non-labeled glucagon (final concentration 1 μM) as 100% inhibitory rate.

T1 sequence (P47871 26-477): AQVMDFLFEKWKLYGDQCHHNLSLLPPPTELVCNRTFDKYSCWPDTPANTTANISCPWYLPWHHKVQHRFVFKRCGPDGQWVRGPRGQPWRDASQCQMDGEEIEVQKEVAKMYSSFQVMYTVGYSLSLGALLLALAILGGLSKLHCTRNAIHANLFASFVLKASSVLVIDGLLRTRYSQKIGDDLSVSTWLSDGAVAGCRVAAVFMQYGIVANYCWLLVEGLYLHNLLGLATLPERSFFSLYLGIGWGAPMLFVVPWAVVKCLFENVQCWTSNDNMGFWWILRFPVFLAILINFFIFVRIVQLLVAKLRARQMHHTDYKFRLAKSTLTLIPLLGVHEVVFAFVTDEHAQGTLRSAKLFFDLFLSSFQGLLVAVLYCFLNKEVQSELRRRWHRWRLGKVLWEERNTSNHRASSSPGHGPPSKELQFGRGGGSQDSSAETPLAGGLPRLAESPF

pIC50	SMILES
6.39	CC(C)c1nn(-c2ccc(C(F)(F)F)cn2)cc1C(Nc1ccc(C(=O)N(C)CCC(=O)O)cc1)C1CCCCC1 (stereo not shown) [Example 8, 3-[({4-[(cyclohexyl{3-(1-methylethyl)-1-[5-(trifluoromethyl)pyridin-2-yl]-1H-pyrazol-4-yl}methyl)amino]phenyl}carbonyl)(methyl)amino]propanoic acid]

same assay, conditions: test compound 10 μM; 0.4% DMSO = 0%, non-labeled glucagon 1 μM = 100%

inhibitory rate (%) at 10 μM [%]	SMILES
82	COc1ccc2oc(C(Nc3ccc(C(=O)N(C)CCC(=O)O)cc3)C3CCCCC3)c(C)c2c1 (stereo not shown) [Example A44, 3-{[(4-{[cyclohexyl(5-methoxy-3-methyl-1-benzofuran-2-yl)methyl]amino}phenyl)carbonyl](methyl)amino}propanoic acid]
92	COCCOc1ccc2oc(C(Nc3ccc(C(=O)N(C)CCC(=O)O)cc3)C3CCCCC3)c(C)c2c1 (stereo not shown) [Example A80, 3-[{[4-({cyclohexyl[5-(2-methoxyethoxy)-3-methyl-1-benzofuran-2-yl]methyl}amino)phenyl]carbonyl}(methyl)amino]propanoic acid]

same assay, conditions: test compound 10 μM; 0.4% DMSO = 0%, non-labeled glucagon 1 μM = 100%; read-out: inhibitory rate (%) at 10 μM

inhibition at 10 µM [%]	SMILES
81	CSCCCOc1ccc2oc(C(Nc3ccc(C(=O)N(C)CCC(=O)O)cc3)C3CCCCC3)c(C)c2c1 (stereo not shown) [Example A150, 3-[({4-[(cyclohexyl{3-methyl-5-[3-(methylsulfanyl)propoxy]-1-benzofuran-2-yl}methyl)amino]phenyl}carbonyl)(methyl)amino]propanoic acid]
85	Cc1c(C(Nc2ccc(C(=O)NCCC(=O)O)cc2)C2CCCCC2)sc2ccncc12 (stereo not shown) [Example A138, 3-{[(4-{[cyclohexyl(3-methylthieno[3,2-c]pyridin-2-yl)methyl]amino}phenyl)carbonyl]amino}propanoic acid]
70	Cc1c(C(Nc2ccc(C(=O)N(C)CCC(=O)O)cc2)C2CCCCC2)oc2ccc(NS(C)(=O)=O)cc12 (stereo not shown) [Example A111, 3-[({4-[(cyclohexyl{3-methyl-5-[(methylsulfonyl)amino]-1-benzofuran-2-yl}methyl)amino]phenyl}carbonyl)(methyl)amino]propanoic acid]
75	CC(C)c1nn(-c2ccc(C(F)(F)F)cn2)cc1C(Nc1ccc(C(=O)N(C)CCC(=O)O)cc1)C1CCCCC1 (stereo not shown) [Example 8, 3-[({4-[(cyclohexyl{3-(1-methylethyl)-1-[5-(trifluoromethyl)pyridin-2-yl]-1H-pyrazol-4-yl}methyl)amino]phenyl}carbonyl)(methyl)amino]propanoic acid]
80	Cc1c(C(Nc2ccc(C(=O)N(C)CCC(=O)O)cc2)C2CCCCC2)oc2ccc(OCc3ccncc3)cc12 (stereo not shown) [Example A157, 3-[{[4-({cyclohexyl[3-methyl-5-(pyridin-4-ylmethoxy)-1-benzofuran-2-yl]methyl}amino)phenyl]carbonyl}(methyl)amino]propanoic acid]
60	COc1ccc(-n2cc(C(CC(C)C)Nc3ccc(C(=O)N(C)CCC(=O)O)cc3)c(C3CC3)n2)cc1 (stereo not shown) [Example 45, 3-[{[4-({1-[3-cyclopropyl-1-(4-methoxyphenyl)-1H-pyrazol-4-yl]-3-methylbutyl}amino)phenyl]carbonyl}(methyl)amino]propanoic acid]
85	Cc1c(C(Nc2ccc(C(=O)N(C)CCC(=O)O)cc2)C2CCCCC2)oc2c(F)cc(F)cc12 (stereo not shown) [Example A164, 3-{[(4-{[cyclohexyl(5,7-difluoro-3-methyl-1-benzofuran-2-yl)methyl]amino}phenyl)carbonyl](methyl)amino}propanoic acid]
68	CCc1nn(-c2ccc(OC)cc2)cc1C(Nc1ccc(C(=O)NCCC(=O)O)cc1)C1CCCCC1 (stereo not shown) [Example 50, 3-({[4-({cyclohexyl[3-ethyl-1-(4-methoxyphenyl)-1H-pyrazol-4-yl]methyl}amino)phenyl]carbonyl}amino)propanoic acid]
74	Cc1c(C(Nc2ccc(C(=O)N(C)CCC(=O)O)cc2)C(C)C)oc2ccc(C3CC3)cc12 (stereo not shown) [Example A184, 3-{[(4-{[1-(5-cyclopropyl-3-methyl-1-benzofuran-2-yl)-2-methylpropyl]amino}phenyl)carbonyl](methyl)amino}propanoic acid]
79	Cc1ccc2oc(C(Nc3ccc(C(=O)N(C)CCC(=O)O)cc3)C3CCCCC3)c(C)c2c1 (stereo not shown) [Example A91, 3-{[(4-{[cyclohexyl(3,5-dimethyl-1-benzofuran-2-yl)methyl]amino}phenyl)carbonyl](methyl)amino}propanoic acid]
78	Cc1c(C(Nc2ccc(C(=O)NCCC(=O)O)cc2)C2CCCCC2)oc2ccc(F)cc12 (stereo not shown) [Example A39, 3-{[(4-{[cyclohexyl(5-fluoro-3-methyl-1-benzofuran-2-yl)methyl]amino}phenyl)carbonyl]amino}propanoic acid]
59	Cc1nn(-c2ncc(C(F)(F)F)cc2Cl)cc1C(Nc1ccc(C(=O)N(C)CCC(=O)O)cc1)C1CCCCC1 (stereo not shown) [Example 32, 3-{[(4-{[{1-[3-chloro-5-(trifluoromethyl)pyridin-2-yl]-3-methyl-1H-pyrazol-4-yl}(cyclohexyl)methyl]amino}phenyl)carbonyl](methyl)amino}-propanoic acid]
76	Cc1c(C(Nc2ccc(C(=O)NCCC(=O)O)cc2)C2CCCCC2)oc2cc(F)ccc12 (stereo not shown) [Example A96, 3-{[(4-{[cyclohexyl(6-fluoro-3-methyl-1-benzofuran-2-yl)methyl]amino}phenyl)carbonyl]amino}propanoic acid]
69	CCc1nn(-c2cccc(OC)c2)cc1C(Nc1ccc(C(=O)N(C)CCC(=O)O)cc1)C1CCCCC1 (stereo not shown) [Example 78, 3-[{[4-({cyclohexyl[3-ethyl-1-(3-methoxyphenyl)-1H-pyrazol-4-yl]methyl}amino)phenyl]carbonyl}(methyl)amino]propanoic acid]
82	Cc1c(C(Nc2ccc(C(=O)NCCC(=O)O)cc2)C2CCCCC2)sc2cccnc12 (stereo not shown) [Example A144, 3-{[(4-{[cyclohexyl(3-methylthieno[3,2-b]pyridin-2-yl)methyl]amino}phenyl)carbonyl]amino}propanoic acid]
89	Cc1c(C(Nc2ccc(C(=O)N(C)CCC(=O)O)cc2)C2CCCCC2)oc2ccc(OCc3ccc(Cl)nc3)cc12 (stereo not shown) [Example A170, 3-{[(4-{[{5-[(6-chloropyridin-3-yl)methoxy]-3-methyl-1-benzofuran-2-yl}(cyclohexyl)methyl]amino}phenyl)carbonyl](methyl)amino}-propanoic acid]
61	COc1cccc(-n2cc(C)c(C(Nc3ccc(C(=O)N(C)CCC(=O)O)cc3)C3CCCCC3)n2)c1 (stereo not shown) [Example 75, 3-[{[4-({cyclohexyl[1-(3-methoxyphenyl)-4-methyl-1H-pyrazol-3-yl]methyl}amino)phenyl]carbonyl}(methyl)amino]propanoic acid]
72	Cc1nn(-c2ccc(C(F)(F)F)cn2)cc1C(Nc1ccc(C(=O)N(C)CCC(=O)O)cc1)C1CCCCC1 (stereo not shown) [Example 2, 3-[({4-[(cyclohexyl{3-methyl-1-[5-(trifluoromethyl)pyridin-2-yl]-1H-pyrazol-4-yl}methyl)amino]phenyl}carbonyl)(methyl)amino]propanoic acid]
98	COc1ccc(-c2ccc3oc(C(Nc4ccc(C(=O)N(C)CCC(=O)O)cc4)C4CCCCC4)c(C)c3c2)cn1 (stereo not shown) [Example A174, 3-[{[4-({cyclohexyl[5-(6-methoxypyridin-3-yl)-3-methyl-1-benzofuran-2-yl]methyl}amino)phenyl]carbonyl}(methyl)amino]propanoic acid]
82	CCC(CC)C(Nc1ccc(C(=O)NCCC(=O)O)cc1)c1sc2ccccc2c1C (stereo not shown) [Example A134, 3-{[(4-{[2-ethyl-1-(3-methyl-1-benzothiophene-2-yl)butyl]amino}phenyl)carbonyl]amino}propanoic acid]
70	Cc1c(C(Nc2ccc(C(=O)N(C)CCC(=O)O)nc2)C(C)C)oc2ccc(OCC3CC3)cc12 (stereo not shown) [Example A213, 3-[{[5-({1-[5-(cyclopropylmethoxy)-3-methyl-1-benzofuran-2-yl]-2-methylpropyl}amino)pyridin-2-yl]carbonyl}(methyl)amino]propanoic acid]
77	COCCN(C)c1ccc2oc(C(Nc3ccc(C(=O)N(C)CCC(=O)O)cc3)C3CCCCC3)c(C)c2c1 (stereo not shown) [Example A188, 3-[({4-[(cyclohexyl{5-[(2-methoxyethyl)(methyl)amino]-3-methyl-1-benzofuran-2-yl}methyl)amino]phenyl}carbonyl)(methyl)amino]propanoic acid]
